Test results reported in the supplement of paper PMC10307832.

Assays:
Test in all cases: relative viability (nuclei count vs DMSO), 5 days (fraction); higher = more cells survive
Serdemetan + Pictilisib = compound: c1ccc2c(CCNc3ccc(Nc4ccncc4)cc3)c[nH]c2c1 [Serdemetan] + CS(=O)(=O)N1CCN(Cc2cc3nc(-c4cccc5[nH]ncc45)nc(N4CCOCC4)c3s2)CC1 [Pictilisib] (partner 1 µM)
Summary of the method: (§1)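 For relative viability, nuclei counts in treated wells were divided by those in vehicle wells. Lung cancer cell lines had been pin-tool dosed in 1536-well plates the day after seeding and cultured for 5 days, then fixed and stained in one step (final 0.05% Triton X-100, 1% formaldehyde, 1 ug/ml Hoechst) and imaged at 4×. Doses were one drug alone or a fixed anchor-drug dose plus five library-drug doses (not always all listed) in √10 steps, and values are duplicate-plate medians.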

Selisistat + Trametinib = compound: C1CC(C2=C(C1)C3=C(N2)C=CC(=C3)Cl)C(=O)N [Selisistat] + CC(=O)Nc1cccc(-n2c(=O)n(C3CC3)c(=O)c3c(Nc4ccc(I)cc4F)n(C)c(=O)c(C)c32)c1 [Trametinib] (partner 0.02 µM)
Summary of the method: as §1

Serdemetan + Olaparib = compound: c1ccc2c(CCNc3ccc(Nc4ccncc4)cc3)c[nH]c2c1 [Serdemetan] + O=C(c1cc(Cc2n[nH]c(=O)c3ccccc23)ccc1F)N1CCN(C(=O)C2CC2)CC1 [Olaparib] (partner 8 µM)
Summary of the method: as §1

Selisistat + Luminespib = compound: C1CC(C2=C(C1)C3=C(N2)C=CC(=C3)Cl)C(=O)N [Selisistat] + CCNC(=O)c1noc(-c2cc(C(C)C)c(O)cc2O)c1-c1ccc(CN2CCOCC2)cc1 [Luminespib] (partner 0.01 µM)
Summary of the method: as §1

Cell Line	relative viability (Serdemetan + Pictilisib; first compound 0.04 µM)	relative viability (Serdemetan + Pictilisib; first compound 0.1265 µM)	relative viability (Serdemetan + Pictilisib; first compound 0.4 µM)	relative viability (Serdemetan + Pictilisib; first compound 1.265 µM)	relative viability (Serdemetan + Pictilisib; first compound 4 µM)	relative viability (Selisistat + Trametinib; first compound 0.4 µM)	relative viability (Selisistat + Trametinib; first compound 1.265 µM)	relative viability (Selisistat + Trametinib; first compound 4 µM)	relative viability (Selisistat + Trametinib; first compound 12.65 µM)	relative viability (Selisistat + Trametinib; first compound 40 µM)	relative viability (Serdemetan + Olaparib; first compound 0.04 µM)	relative viability (Serdemetan + Olaparib; first compound 0.1265 µM)	relative viability (Serdemetan + Olaparib; first compound 0.4 µM)	relative viability (Serdemetan + Olaparib; first compound 1.265 µM)	relative viability (Serdemetan + Olaparib; first compound 4 µM)	relative viability (Selisistat + Luminespib; first compound 0.4 µM)	relative viability (Selisistat + Luminespib; first compound 1.265 µM)	relative viability (Selisistat + Luminespib; first compound 4 µM)	relative viability (Selisistat + Luminespib; first compound 12.65 µM)	relative viability (Selisistat + Luminespib; first compound 40 µM)
HCC-366	0.204	0.151	0.0985	0.141	0.168	0.435	0.302	0.329	0.301	0.285	0.22	0.0954	0.0557	0.0411	0.0631	–	–	–	–	–
HCC-827	0.921	0.712	–	0.575	0.824	0.529	0.575	0.546	0.572	0.559	0.631	0.594	–	0.509	0.306	0.619	0.6	0.482	0.575	0.832
HOP-62	0.821	0.798	0.782	0.604	0.657	0.431	0.394	0.362	0.401	0.408	0.482	0.394	0.489	–	0.263	0.951	0.967	0.886	0.88	1.01
IA-LM	0.4	0.499	0.325	0.314	0.389	–	–	–	–	–	0.883	0.886	0.839	0.392	0.396	–	–	–	–	–
LC-2-ad	0.42	0.445	0.431	–	0.417	0.973	0.96	0.898	0.662	0.95	0.703	0.629	0.63	0.536	0.511	1.13	–	1.02	1	1.06
LCLC-97TM1	0.214	0.22	0.183	0.143	0.124	0.192	0.208	–	0.163	0.217	0.349	0.358	0.403	0.174	0.237	0.74	0.679	–	0.619	0.724
LCLC-103H	0.629	0.665	0.619	0.594	0.611	0.682	0.731	0.75	0.651	0.711	0.742	0.727	0.661	0.593	0.728	1.06	0.936	0.926	0.863	1.06
LK-2	0.479	0.578	0.687	0.362	0.301	0.994	0.677	0.711	0.656	1.01	0.715	0.645	0.782	0.444	0.57	0.193	0.161	0.182	0.198	0.188
LOU-NH91	0.519	0.484	–	0.433	0.496	0.805	0.799	0.767	0.798	0.776	0.897	0.889	–	–	0.877	0.269	0.322	0.348	0.336	0.406
LU99A	0.336	0.33	0.338	0.2	0.218	0.596	0.561	0.552	0.52	0.575	0.245	0.185	0.17	0.124	0.136	0.258	0.214	0.301	0.291	0.223
LXF-289	0.792	0.783	0.662	0.701	0.707	0.72	0.727	0.646	0.69	0.731	1.1	1.11	0.939	0.794	0.388	0.601	0.565	0.696	0.686	0.673
NCI-H23	0.536	0.571	0.459	0.439	0.543	0.402	0.318	–	0.427	0.485	0.314	0.364	0.298	–	0.231	0.188	0.203	–	0.204	0.197
NCI-H322M	0.519	0.505	0.468	0.552	0.516	0.483	0.575	–	0.567	0.545	0.667	0.757	0.729	0.469	0.655	0.875	0.82	0.562	0.868	0.812
NCI-H522	–	–	–	–	–	0.651	0.653	0.745	0.751	0.589	0.595	0.665	0.65	0.458	0.477	1.07	1.1	0.789	1.17	1.08
NCI-H1299	0.858	0.864	0.679	0.61	0.384	–	–	–	–	–	0.953	0.91	0.869	0.787	0.57	–	–	–	–	–
NCI-H1563	0.613	0.665	0.664	0.549	0.628	–	–	–	–	–	–	–	–	–	–	0.473	0.523	0.54	0.528	0.541
NCI-H1623	–	–	–	–	–	–	–	–	–	–	–	–	–	–	–	0.701	0.504	0.315	0.644	0.503
NCI-H1648	–	–	–	–	–	0.448	0.399	–	0.453	0.431	–	0.744	0.633	0.399	0.425	–	–	–	–	–
NCI-H1703	0.213	0.278	0.3	0.271	0.232	–	–	–	–	–	0.427	0.397	0.415	0.386	0.333	–	–	–	–	–
NCI-H2342	–	–	–	–	–	0.931	0.826	0.801	0.736	0.988	0.621	0.445	0.416	0.236	0.334	0.725	0.668	0.625	0.923	0.742
SW 900	–	–	–	–	–	1.03	0.87	0.78	0.995	0.78	1.03	0.892	0.861	0.691	0.459	0.175	0.175	0.179	0.16	0.177
